Entries after “also recorded” stand apart in the source; their conditions may differ.
Key:
[1] = system: PC12 rat pheochromocytoma cells; experiment: Thapsigargin-induced death of PC12 cells (undifferentiated and differentiated), ATP content assay; type: cell-based; design: key to Cytoprotective activity, PC12 (Result): +indicates >50% rescue of cell viability relative to untreated cells not exposed to thapsigargin at compound concentration of ≦25 μM; E indicates compound enhanced thapsigargin-induced death
Method: (§1) In addition to CSM14.1 cells, when tested at 25 μM, Compound 5962123 protected by >50% against thapsigargin-induced death of several tumor cell lines (HeLa human cervical cancer, SW1 melanoma cell, PPC1, human prostate cancer), mouse neural stem cell C17.2 (both differentiated [neuronal phenotype] and non-differentiated [stem cell phenotype]) as determined by ATP content assay, and primary rat cortical neurons as determined by microscopy assay measuring the percentage of NeuN-immunopositive cells with either normal or apoptotic nuclear morphology (Hoechst dye staining).
For PC12, cells were stimulated with 20 ng/ml NGF for five days; for C17.2, cells were stimulated with serum reduction, and 1% N2 incubation for three days; for CSM14.1, cells were cultured at 39° C. for 5-7 days.

phospho-eIF2α = experiment: Immunoblotting of eIF2α phosphorylation in thapsigargin-treated CSM14.1 cells; type: cell-based, rat; details: thapsigargin-stimulated CSM14.1, listed as CID-2878746
Text: (§2) After confirming the pathway selectivity of compounds, additional downstream assays can be performed to map the specific signal transduction pathway inhibited by the compounds. In this regard, various antibody reagents are commercially available for assessing the status of the three major pathways known to be activated by ER stress: (1) PERK, (2) Ire1, and (3) ATF6 (Xu et al., J. Clinical Invest., 115:2656-2664, 2005). Immunoblotting experiments can be performed to assess the expression or phosphorylation (using phospho-specific antibodies) of marker proteins in these pathways. […] Cell lysates were prepared and analyzed by SDS-PAGE/immunoblotting using antibodies specific for phospho-c-Jun, phospho-eIF2α, phospho-p38 MAPK, and tubulin (a loading control). […] After two hrs, cell lysates were prepared, normalized for protein content, and either analyzed by SDS-PAGE/immunoblotting using anti-p38-MAPK pan-reactive antibody or phospho-specific antibody with ECL-based detection, followed by densitometry analysis of x-ray films, normalizing phosphor-p38 MAPK relative to total p38 MAPK, or analyzed using a meso-scale instrument from MSD and a procedure in which total p38 MAPK is captured on plates, and the relative amounts of phosphorylated protein were determined using phospho-specific antibody (MSD catalog #K15112D1). […]

Jurkat human T-leukemia = experiment: Thapsigargin-induced death of Jurkat cells, ATP content assay; type: cell-based; details: 25 μM
Method: To explore whether compounds broadly protect cells of various lineages versus only neuronal cells, we tested all 26 hits for ability to rescue CSM14.1 (neuronal), and Jurkat (lymphoid), cell lines from cell death induced by TG. […] CSM 14.1 (FIG. 15, left) and Jurkat cells (FIG. 15, right) were cultured overnight at 3,000 cells per well or at 30,000 cells per well, respectively, in 96-well plates. Wells received DMSO alone or 25 μM compounds in DMSO, followed by treatment with or without TG (15 μM). After culturing for 24 hrs, ATP content was determined, expressing data as a percentage control relative to cells treated only with DMSO (mean ±SD; n=3). The data reveal that one of the compounds protects CSM14.1 but not Jurkat cells from TG-induced cell death (as measured by the ATPlite assay). […]
as §1, with “staining). […]” for “staining).”

CHOP = experiment: Thapsigargin-induced expression of CHOP; type: cell-based, rat; details: listed as CID-2878746
Method: CSM 14.1 cells were cultured with DMSO or with 25 μM of hit compounds for two hours followed by treatment with thapsigargin (15 μM). Cell lysates were prepared and analyzed by SDS-PAGE/immunoblotting using antibodies specific for: c-Jun, phosphor-c-Jun (ser 73), eIF2a, phosphor-eIF2a (ser 51), p38 MAPK, phosphor-p38 MAPK (Thr180/Tyr182), ATF-6, CHOP and tubulin (loading control). ER stress-induced activation of C-Jun and p38 MAPK is suppressed by the 11 hit compounds.

ATF6 = ATF6 proteolytic processing (immunoblotting); type: cell-based, rat; details: immunoblotting to detect cleaved form; listed as CID-2878746
Text: as §2

SMILES: CCN(CC)c1ccc(C2Nc3ccccc3NC3=C2C(=O)CC(c2ccccc2)C3)cc1 (centres unmarked) [Compound 5962123, 6-(4-diethylaminophenyl)-9-phenyl-5,6,8,9,10,11-hexahydrobenzo[c][1,5]benzodiazepin-7-one]
- Protection of PC12 cells from thapsigargin-induced cell death ([1]; 25 μM, undifferentiated or differentiated as stated, ATP content assay): does not protect
- Effect on thapsigargin-treated undifferentiated PC12 cells ([1]; undifferentiated PC12): paradoxical cell death-promoting activity
- Cytoprotective activity, PC12 (Result) ([1]; undifferentiated, thapsigargin 15 μM, ATP content, compound ≦25 μM): E
- Phosphorylation of eIF2alpha (Ser 51) (phospho-eIF2α): not inhibited
- Final DMSO concentration needed in culture media to avoid a visible cloudy precipitate: at least 0.2 % (v/v)
- Protection of Jurkat cells from thapsigargin-induced cell death (Jurkat human T-leukemia): does not protect; also recorded: inactive
- Thapsigargin-induced expression of CHOP (CHOP): not inhibited
- ATF6 proteolytic processing (ATF6): not inhibited
